Tests used:
[1] = system: Mus musculus; test: Anticonvulsant activity in MES induced mouse model of seizure assessed as protection against seizure at 1 mmol/Kg, ip relative to control; type: functional
[2] = system: Mus musculus; test: Anticonvulsant activity in PTZ induced mouse model of seizure assessed as protection against seizure at 1 mmol/Kg, ip relative to control; type: functional
[3] = Therapeutic index, ratio of LD50 for toxicity in ip dosed mouse to ED50 for anticonvulsant activity in ip dosed mouse model of seizure; type: organism-based; details: in vivo, read-out: TI
[4] = system: Mus musculus; test: Anticonvulsant activity in ip dosed mouse model of seizure; type: functional
[5] = Protective index, ratio of TD50 for toxicity in ip dosed mouse to ED50 for anticonvulsant activity in ip dosed mouse model of seizure; type: organism-based; details: in vivo, read-out: Ratio TD50/ED50
[6] = Toxicity in ip dosed mouse; type: organism-based; details: in vivo

CC(=O)c1nnn(-c2nc(Cl)nc(Cl)n2)c1NCc1cc(F)c(F)c(F)c1
Activity [1]: 67%
Activity [2]: 75%

CC(=O)c1nnn(-c2nc(Cl)nc(Cl)n2)c1NCc1ccccc1
Activity [1]: 33%
Activity [2]: 48%

CC(=O)c1nnn(-c2nc(Cl)nc(Cl)n2)c1NCc1ccc(F)cc1
Activity [1]: 100%
selectivity ratio [3]: 3.35
ED50 [4]: 0.34 mmol/kg
selectivity ratio [5]: 2.61
Activity [2]: 100%
TD50 [6]: 0.89 mmol/kg

CC(=O)c1nnn(-c2nc(Cl)nc(Cl)n2)c1NCc1ccc(Cl)cc1
Activity [1]: 100%
selectivity ratio [3]: 2.76
ED50 [4]: 0.39 mmol/kg
selectivity ratio [5]: 2.38
Activity [2]: 100%
TD50 [6]: 0.93 mmol/kg

CC(=O)c1nnn(-c2nc(Cl)nc(Cl)n2)c1NCc1cc(F)cc(F)c1
Activity [1]: 83%
selectivity ratio [3]: 2.21
ED50 [4]: 0.46 mmol/kg
selectivity ratio [5]: 2.1
Activity [2]: 100%
TD50 [6]: 0.97 mmol/kg

CC(=O)c1nnn(-c2nc(Cl)nc(Cl)n2)c1NCc1ccc([N+](=O)[O-])cc1
Activity [1]: 100%
selectivity ratio [3]: 4.14
ED50 [4]: 0.27 mmol/kg
selectivity ratio [5]: 3.07
Activity [2]: 100%
TD50 [6]: 0.83 mmol/kg

CC(=O)c1nnn(-c2nc(Cl)nc(Cl)n2)c1NCc1ccc(C(F)(F)F)cc1
Activity [1]: 100%
selectivity ratio [3]: 5.61
ED50 [4]: 0.21 mmol/kg
selectivity ratio [5]: 3.76
Activity [2]: 100%
TD50 [6]: 0.79 mmol/kg

CC(=O)c1nnn(-c2nc(Cl)nc(Cl)n2)c1NCc1ccc(C)cc1
Activity [1]: 25%
Activity [2]: 39%

COc1ccc(CNc2c(C(C)=O)nnn2-c2nc(Cl)nc(Cl)n2)cc1
Activity [1]: 10%
Activity [2]: 25%

CC(=O)c1nnn(-c2nc(Cl)nc(Cl)n2)c1NCc1ccc(O)cc1
Activity [1]: 18%
Activity [2]: 33%

Cc1ccccc1-n1c(C)nc2ccccc2c1=O [METHAQUALONE]
Activity [1]: 100%
selectivity ratio [3]: 1.4
ED50 [4]: 1.46 mmol/kg
selectivity ratio [5]: 1.12
Activity [2]: 100%
TD50 [6]: 1.64 mmol/kg

CCCC(CCC)C(=O)O [VALPROIC ACID]
Activity [1]: 100%
selectivity ratio [3]: 2.59
ED50 [4]: 4.61 mmol/kg
selectivity ratio [5]: 2.08
Activity [2]: 100%
TD50 [6]: 9.63 mmol/kg

Reference: ChEMBL document CHEMBL5150034, “Design, synthesis, molecular docking and pharmacological evaluation of novel triazine-based triazole derivatives as potential anticonvulsant agents” (Bioorg Med Chem Lett, 2022)
